Patent US20250296971A1, “GASTRIC INHIBITORY PEPTIDE RECEPTOR LIGANDS” (priority 2021, published 2025)
Where two headings read alike, the source gives them in different places. *1 amine or outer side, *2 acyl side, *3 side chain or, on linkers, in order; H or OH if unused. Where a SMILES comes first, the peptide text is derived from it. Bridges are numbered along the chain shown (N, C = ends). [ ]: non-standard residue; d: D form. The star is where a group is joined. X5 = NC(=O)[C@H](CCCCNC(=O)CN1CCN(CC(=O)O)CCN(CC(=O)O)CCN(CC(=O)O)CC1)NC(=O)CCC(=O)NCCCOCCOCCOCCCN*; NH(1-deoxy-D-glucityl) = OC[C@@H](O)[C@@H](O)[C@H](O)[C@@H](O)CN*; DOTA = O=C(O)CN1CCN(CC(=O)O)CCN(CC(=O)*)CCN(CC(=O)O)CC1; X9 = O=C(O)CN1CCN(CC(=O)O)CCN([C@H](CCC(=O)*)C(=O)O)CC1; Trp(5-Cl) = N[C@@H](Cc1c[nH]c2ccc(Cl)cc12)C(=O)O; Pyridine(2,6-diCH2) = c1cc(C[*:1])nc(C[*:2])c1; Pro(4R-NH2) = N[C@H]1CN[C@H](C(=O)O)C1; 1Nal = N[C@@H](Cc1cccc2ccccc12)C(=O)O; mXylylene = c1cc(C[*:1])cc(C[*:2])c1; Glutaryl = O=C(CCCC(=O)[*:2])[*:1]; X7 = c1cc(CSCCN[*:2])cc(C[*:1])c1; Hyp = O=C(O)[C@@H]1C[C@@H](O)CN1; X1 = O=C(CN1CCC(N[*:1])CC1)[*:2]; NMeE = CN[C@@H](CCC(=O)O)C(=O)O; Cha = N[C@@H](CC1CCCCC1)C(=O)O; Aic = NC1(C(=O)O)Cc2ccccc2C1; hCys = N[C@@H](CCS)C(=O)O; hSer = N[C@@H](CCO)C(=O)O; Api = NC1(C(=O)O)CCNCC1; Thp = NC1(C(=O)O)CCOCC1; Aib = CC(C)(N)C(=O)O

Target: T1, GIPR (CHO-K1-hGIPR cells) (Homo sapiens, UniProt P48546)
T1 construct: host or cells: CHO-K1
T1 sequence (P48546 22-466): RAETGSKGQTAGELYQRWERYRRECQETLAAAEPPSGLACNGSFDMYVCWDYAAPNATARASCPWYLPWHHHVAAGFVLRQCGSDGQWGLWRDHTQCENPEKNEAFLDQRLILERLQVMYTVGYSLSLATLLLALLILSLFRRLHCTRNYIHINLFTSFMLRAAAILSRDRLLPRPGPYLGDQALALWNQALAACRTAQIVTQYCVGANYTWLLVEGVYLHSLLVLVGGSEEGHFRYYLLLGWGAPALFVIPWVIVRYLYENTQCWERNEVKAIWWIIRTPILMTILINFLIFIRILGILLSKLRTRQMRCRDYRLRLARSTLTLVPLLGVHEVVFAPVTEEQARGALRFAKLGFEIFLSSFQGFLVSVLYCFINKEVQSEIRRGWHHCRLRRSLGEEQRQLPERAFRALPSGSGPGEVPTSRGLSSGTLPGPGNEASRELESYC
Experiment: FACS binding assay
Details: read-out: pIC50 Category (converted)
Procedure, shortened: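 CHO-K1 cells expressing human GIPR, washed in PBS/1% FCS, then stained with 1 μg/mL APC-streptavidin for 30 min on ice.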

[1] = competition with 20 nM GIP-057, 4° C., 1 hour
[2] = competition with 20 nM GIP-057, 4° C. for 1 hour

`CC[C@H](C)[C@@H]1NC(=O)[C@H](CC(C)C)NC(=O)C2(CCN(C(=O)CN3CCN(CC(=O)O)CCN(CC(=O)O)CCN(CC(=O)O)CC3)CC2)NC(=O)[C@@H](NC(=O)[C@@H](CC(C)C)NC(=O)[C@H](CCC(=O)O)NC(=O)[C@@H]2C[C@@H](N)CN2C(=O)[C@H](Cc2c[nH]c3ccc(Cl)cc23)NC(=O)[C@H](Cc2c[nH]c3ccccc23)NC(=O)[C@H](CCO)NC(=O)CCCC(=O)NC[C@H](O)[C@@H](O)[C@H](O)[C@H](O)CO)CSCc2cccc(n2)CSC[C@@H](C(=O)NC2CCN(CC(=O)N[C@H](CCC(=O)NC[C@H](O)[C@@H](O)[C@H](O)[C@H](O)CO)C(N)=O)CC2)NC1=O` [GIP-034, AGLU-Glutar-Hse-Trp-5Clw-Tap-Glu-leu-[Cys(2Lut)-Apc(DOTA)-Leu-Ile-Cys]-APAc-glu(AGLU)-NH2] ({NH(1-deoxy-D-glucityl)-Glutaryl}-[hSer]W[Trp(5-Cl)][Pro(4R-NH2)]E[dL]C[Api](DOTA)LIC[X1][dE](NH(1-deoxy-D-glucityl))-NH2; linker 7-11 via Pyridine(2,6-diCH2)) was tested, and the IC50 [1] was < 0.01 µM.

Work on `CC[C@H](C)[C@@H]1NC(=O)[C@H](CC(C)C)NC(=O)C(C)(C)NC(=O)[C@@H](NC(=O)[C@H](CC(C)C)NC(=O)[C@H](CCC(=O)O)N(C)C(=O)[C@@H]2CCCN2C(=O)[C@H](Cc2c[nH]c3ccccc23)NC(=O)[C@H](Cc2c[nH]c3ccccc23)NC(=O)[C@H](CC(=O)O)NC(C)=O)CSCc2cccc(c2)CSC[C@@H](C(=O)NCCCOCCOCCOCCCNC(=O)CCC(=O)N[C@@H](CCCCNC(=O)CN2CCN(CC(=O)O)CCN(CC(=O)O)CCN(CC(=O)O)CC2)C(N)=O)NC1=O` [GIP-274, Ac-Asp-Trp-Trp-Pro-Nme-Leu-[Cys(3MeBn)-Aib-Leu-Ile-Cys]-Ttds-Lys(DOTA)-NH2] (Ac-DWWP[NMeE]LC[Aib]LIC-X5; linker 7-11 via mXylylene) yielded an IC50 [2] of 0.1 to 0.794 µM.

`CC[C@H](C)[C@@H]1NC(=O)[C@H](CC(C)C)NC(=O)C(C)(C)NC(=O)[C@@H](NC(=O)[C@H](CC(N)=O)NC(=O)[C@H](CCC(=O)O)NC(=O)[C@@H]2CCCN2C(=O)[C@H](Cc2cccc3ccccc23)NC(=O)[C@H](Cc2c[nH]c3ccccc23)NC(=O)[C@H](CC(=O)O)NC(C)=O)CSCc2cccc(c2)CSC[C@@H](C(N)=O)NC1=O` [GIP-340, Ac-Asp-Trp-1Ni-Pro-Glu-Asn-[Cys(3MeBn)-Aib-Leu-Ile-Cys]-NH2] (Ac-DW[1Nal]PENC[Aib]LIC-NH2; linker 7-11 via mXylylene) was tested, and the IC50 [2] was > 1 µM.

`CC[C@H](C)[C@@H]1NC(=O)[C@H](CC(C)C)NC(=O)C2(CCOCC2)NC(=O)[C@@H](NC(=O)[C@@H](CC(C)C)NC(=O)[C@H](CCC(=O)O)NC(=O)[C@@H]2C[C@@H](O)CN2C(=O)[C@H](Cc2c[nH]c3ccc(Cl)cc23)NC(=O)[C@H](Cc2c[nH]c3ccccc23)NC(=O)[C@H](CC(=O)O)NC(C)=O)CCSSCC[C@@H](C(N)=O)NC1=O` [GIP-363, Ac-Asp-Trp-5Clw-Hyp-Glu-leu-[Hey-Thp-Leu-Ile-Hcy]-NH2] (Ac-DW[Trp(5-Cl)][Hyp]E[dL][hCys][Thp]LI[hCys]-NH2; disulfide 7-11) showed an IC50 [2] of 0.01 to 0.0794 µM.

Work on `CC[C@H](C)[C@@H]1NC(=O)[C@H](CC2CCCCC2)NC(=O)C(C)(C)NC(=O)[C@@H](NC(=O)[C@H](CC(C)C)NC(=O)[C@H](CCC(=O)O)NC(=O)[C@@H]2CCCN2C(=O)[C@H](Cc2c[nH]c3ccccc23)NC(=O)[C@H](Cc2c[nH]c3ccccc23)NC(=O)[C@H](CC(=O)O)NC(C)=O)CSCc2cccc(c2)CSC[C@@H](C(=O)NCCCOCCOCCOCCCNC(=O)CCC(=O)N[C@@H](CCCCNC(=O)CN2CCN(CC(=O)O)CCN(CC(=O)O)CCN(CC(=O)O)CC2)C(N)=O)NC1=O` [GIP-134, Ac-Asp-Trp-Trp-Pro-Glu-Leu-[Cys(3MeBn)-Aib-Cha-Ile-Cys]-Ttds-Lys(DOTA)-NH2] (Ac-DWWPELC[Aib][Cha]IC-X5; linker 7-11 via mXylylene) yielded an IC50 [1] of 0.01 to 0.0794 µM.

With `CC[C@H](C)[C@@H]1NC(=O)[C@H](CC(C)C)NC(=O)C2(Cc3ccccc3C2)NC(=O)[C@@H](NC(=O)[C@@H](CC(C)C)NC(=O)[C@H](CCC(=O)O)NC(=O)[C@@H]2C[C@@H](O)CN2C(=O)[C@H](Cc2c[nH]c3ccc(Cl)cc23)NC(=O)[C@H](Cc2c[nH]c3ccccc23)NC(=O)[C@H](CC(=O)O)NC(C)=O)CSCc2cccc(n2)CSC[C@@H](C(N)=O)NC1=O` [GIP-206, Ac-Asp-Trp-5Clw-Hyp-Glu-leu-[Cys(2Lut)-Aic-Leu-Ile-Cys]-NH2] (Ac-DW[Trp(5-Cl)][Hyp]E[dL]C[Aic]LIC-NH2; linker 7-11 via Pyridine(2,6-diCH2)) the IC50 [1] was < 0.01 µM.

For `CC[C@H](C)[C@@H]1NC(=O)[C@H](CC(C)C)NC(=O)C(C)(C)NC(=O)[C@@H](NC(=O)[C@H](CC(C)C)NC(=O)[C@H](CCC(=O)O)NC(=O)[C@@H]2CCCN2C(=O)[C@H](Cc2cccc3ccccc23)NC(=O)[C@H](Cc2c[nH]c3ccccc23)NC(C)=O)CSCc2cccc(c2)CSC[C@@H](C(=O)NCCCOCCOCCOCCCNC(=O)CCC(=O)N[C@@H](CCCCNC(=O)CN2CCN(CC(=O)O)CCN(CC(=O)O)CCN(CC(=O)O)CC2)C(N)=O)NC1=O` [GIP-301, Ac-Trp-1Ni-Pro-Glu-Leu-[Cys(3MeBn)-Aib-Leu-Ile-Cys]-Ttds-Lys(DOTA)-NH2] (Ac-W[1Nal]PELC[Aib]LIC-X5; linker 6-10 via mXylylene), the IC50 [2] was > 1 µM.

`CC[C@H](C)[C@@H]1NC(=O)[C@H](CC(C)C)NC(=O)C2(CCN(C(=O)CC[C@H](C(=O)O)N3CCN(CC(=O)O)CCN(CC(=O)O)CC3)CC2)NC(=O)[C@@H](NC(=O)[C@@H](CC(C)C)NC(=O)[C@H](CCC(=O)O)NC(=O)[C@@H]2C[C@@H](N)CN2C(=O)[C@H](Cc2c[nH]c3ccc(Cl)cc23)NC(=O)[C@H](Cc2c[nH]c3ccccc23)NC(=O)[C@H](CC(=O)O)NC(=O)CCCC(=O)NC[C@H](O)[C@@H](O)[C@H](O)[C@H](O)CO)CSCc2cccc(n2)CSC[C@@H](C(=O)NC2CCN(CC(=O)N[C@H](CCC(=O)NC[C@H](O)[C@@H](O)[C@H](O)[C@H](O)CO)C(N)=O)CC2)NC1=O` [GIP-028, AGLU-Glutar-Asp-Trp-5Clw-Tap-Glu-leu-[Cys(2Lut)-Apc(NODAGA)-Leu-Ile-Cys]-APAc-glu(AGLU)-NH2] ({NH(1-deoxy-D-glucityl)-Glutaryl}-DW[Trp(5-Cl)][Pro(4R-NH2)]E[dL]C[Api](X9)LIC[X1][dE](NH(1-deoxy-D-glucityl))-NH2; linker 7-11 via Pyridine(2,6-diCH2)) was tested, and the IC50 [1] was < 0.01 µM.

For `CC[C@H](C)[C@@H]1NC(=O)[C@H](CC(C)C)NC(=O)C(C)(C)NC(=O)[C@@H](NC(=O)[C@@H](CC(C)C)NC(=O)[C@H](CCC(=O)O)NC(=O)[C@@H]2CCCN2C(=O)[C@H](Cc2c[nH]c3ccc(Cl)cc23)NC(=O)[C@H](Cc2c[nH]c3ccccc23)NC(=O)[C@H](CC(=O)O)NC(=O)CN2CCC(NC(=O)CN3CCN(CC(=O)O)CCN(CC(=O)O)CCN(CC(=O)O)CC3)CC2)CSCc2cccc(c2)CSCCNC1=O` [GIP-089, DOTA-APAc-Asp-Trp-5Clw-Pro-Glu-leu-[Cys(3MeBn)-Aib-Leu-Ile-AET]] ({DOTA}-[X1]DW[Trp(5-Cl)]PE[dL]C[Aib]LI; linker 8-C via X7), the IC50 [1] was < 0.01 µM.

In the case of `CC[C@H](C)[C@@H]1NC(=O)[C@H](CC(C)C)NC(=O)[C@H](C)NC(=O)[C@@H](NC(=O)[C@H](CC(C)C)NC(=O)[C@H](CCC(=O)O)NC(=O)[C@@H]2CCCN2C(=O)[C@H](Cc2c[nH]c3ccccc23)NC(=O)[C@H](Cc2c[nH]c3ccccc23)NC(=O)[C@H](CC(=O)O)NC(=O)[C@H](Cc2ccc(O)cc2)NC(=O)[C@@H](N)CCSC)CSCc2cccc(c2)CSC[C@H](C(N)=O)NC1=O` [GIP-310] (H-MYDWWPELCALI[dC]-NH2; linker 9-13 via mXylylene), the IC50 [2] is reported as 0.1 to 0.794 µM.
